Reference: US5162330A, “Dynemicin C antibiotic, its triacetyl derivative and pharmaceutical composition containing same” (Bristol-Myers Squibb Co., priority 1990, dated 1992)
In brackets after ≈: the same amount, converted by molar mass.

Key:
C. neoformans IAM4514 = test: In vitro antifungal MIC; type: cell-based, Cryptococcus neoformans; conditions: Cryptococcus neoformans, IAM4514, 40 h, pH 7
Description: (§1) The antifungal MICs of dynemicin C and its triacetate were determined by an agar dilution method on yeast morphology agar adjusted to pH7.0 with 1/15M phosphate buffer. A 5 μl aliquot of fungal suspension containing 10^6 cells/ml was inoculated onto the surface of the antibiotic-containing agar plates with a multiinoculator.

[1] = tested on: Cryptococcus neoformans D49; test: In vitro antifungal MIC; type: cell-based; conditions: Cryptococcus neoformans, D49, 40 h, pH 7
Description: as §1

[2] = tested on: Candida albicans ATCC 38247; test: In vitro antifungal MIC; type: cell-based; conditions: ATCC38247, pH 7; Candida albicans ATCC 38247, amphotericin resistant strain; yeast morphology agar pH7.0, 28° C., 40 hours; read-out: MIC
Description: as §1

[3] = tested on: B16-F10 (murine melanoma) cells; test: In vitro cytotoxicity; type: cell-based; conditions: Mus musculus, 72 hours, 37° C., neutral red, 540 nm
Description: Dynemicin C and its triacetate derivative were tested for in vitro cytotoxicity against murine and human tumor cell lines. Dynemicin A and its triacetate derivative were used as reference compounds. B16-F10 (murine melanoma) cells were grown to the logarithmic phase in enriched Eagle minimum essential medium (MEM) supplemented with fetal calf serum (FCS, 10%) and kanamycin (60 mcg/ml) and HCT-116 (human colon carcinoma) cells in Maccoy's 5A medium supplemented with FCS (10%), penicillin (100 μ/ml) and streptomycin (100 mcg/ml), and were harvested and inoculated into wells of the 96- or 24-well tissue culture plate with test materials at concentrations of 1.5×10^4, 1.3×10^4, 1.3×10^4, 2.5×10^4 and 3.0×10^4 cells/ml., respectively. They were incubated at 37° C. in a humidified atmosphere of 5% CO2 and 95% air for 72 hours. The cytotoxic activities were determined colorimetrically at 540 nm after staining viable cells with 0.006% neutral red solution.

P. aeruginosa KKA19 = test: In vitro antibacterial MIC; type: cell-based; conditions: Pseudomonas aeruginosa, pH 7, nutrient agar pH7, 32° C., 18 hours
Description: (§2) The minimum inhibitory concentration (MIC) was determined by a two-fold serial tube dilution method using nutrient agar (pH7, Difco containing 10^5 cfu/ml).

P. cepecia A21213 = test: In vitro antibacterial MIC; type: cell-based; conditions: 18 h, pH 7
Description: as §2

P. vulgaris IPM-13 = test: In vitro antibacterial MIC; type: cell-based; conditions: Proteus vulgaris, IPM13, pH 7; P. vulgaris IPM-13; nutrient agar pH7, 32° C., 18 hours; read-out: MIC
Description: as §2

X. maltophilia No. 661 = test: In vitro antibacterial MIC; type: cell-based; conditions: Stenotrophomonas maltophilia, pH 7, nutrient agar pH7, 32° C., 18 hours
Description: as §2

E. coli 255 = test: In vitro antibacterial MIC; type: cell-based; conditions: Escherichia coli, pH 7; E. coli 255; nutrient agar pH7, 32° C., 18 hours; read-out: MIC
Description: as §2

X. maltophilia GN12873 = test: In vitro antibacterial MIC; type: cell-based; conditions: Stenotrophomonas maltophilia, pH 7, nutrient agar pH7, 32° C., 18 hours
Description: as §2

S. epidermidis 11-1230 = test: In vitro antibacterial MIC; type: cell-based; conditions: Staphylococcus epidermidis, 111230, pH 7; S. epidermidis 11-1230; nutrient agar pH7, 32° C., 18 hours; read-out: MIC
Description: as §2

P. aeruginosa A9843A = test: In vitro antibacterial MIC; type: cell-based; conditions: Pseudomonas aeruginosa, 18 h, pH 7
Description: as §2

P. aeruginosa A20599 = test: In vitro antibacterial MIC; type: cell-based; conditions: Pseudomonas aeruginosa, pH 7; P. aeruginosa A20599; nutrient agar pH7, 32° C., 18 hours; read-out: MIC
Description: as §2

S. marcescens IPM-15 = test: In vitro antibacterial MIC; type: cell-based; conditions: Serratia marcescens, IPM15, pH 7; S. marcescens IPM-15; nutrient agar pH7, 32° C., 18 hours; read-out: MIC
Description: as §2

P. cepecia No. 651 = test: In vitro antibacterial MIC; type: cell-based; conditions: 18 h, pH 7
Description: as §2

S. aureus A15036 (MRSA) = test: In vitro antibacterial MIC; type: cell-based; conditions: Staphylococcus aureus, 18 h, pH 7
Description: as §2

P. aeruginosa IPM-8 = test: In vitro antibacterial MIC; type: cell-based; conditions: Pseudomonas aeruginosa, IPM8, pH 7; P. aeruginosa IPM-8; nutrient agar pH7, 32° C., 18 hours; read-out: MIC
Description: as §2

E. faecalis A9808 = test: In vitro antibacterial MIC; type: cell-based; conditions: Enterococcus faecalis, pH 7; E. faecalis A9808; nutrient agar pH7, 32° C., 18 hours; read-out: MIC
Description: as §2

E. coli Juhl A15119 = test: In vitro antibacterial MIC; type: cell-based; conditions: Escherichia coli, JUHLA15119, pH 7; E. coli Juhl A15119; nutrient agar pH7, 32° C., 18 hours; read-out: MIC
Description: as §2

S. aureus smith = test: In vitro antibacterial MIC; type: cell-based; conditions: Staphylococcus aureus, pH 7; S. aureus smith; two-fold serial dilution, nutrient agar pH7, 32° C., 18 hours; read-out: MIC
Description: as §2

E. faecium A24817 = test: In vitro antibacterial MIC; type: cell-based; conditions: Enterococcus faecium, pH 7, nutrient agar pH7, 32° C., 18 hours
Description: as §2

S. aureus IPM-24 (MRSA) = test: In vitro antibacterial MIC; type: cell-based; conditions: Staphylococcus aureus, 18 h, pH 7
Description: as §2

P. mirabilis IFO 3849 = test: In vitro antibacterial MIC; type: cell-based; conditions: Proteus mirabilis, IFO3849, pH 7; P. mirabilis IFO 3849; nutrient agar pH7, 32° C., 18 hours; read-out: MIC
Description: as §2

M. luteus PCI 1001 = test: In vitro antibacterial MIC; type: cell-based; conditions: Micrococcus luteus, PCI1001, pH 7, nutrient agar pH7, 32° C., 18 hours
Description: as §2

E. cloacae IPM-12 = test: In vitro antibacterial MIC; type: cell-based; conditions: Enterobacter cloacae, IPM12, pH 7; E. cloacae IPM-12; nutrient agar pH7, 32° C., 18 hours; read-out: MIC
Description: as §2

P. aeruginosa IPM-9 = test: In vitro antibacterial MIC; type: cell-based; conditions: Pseudomonas aeruginosa, IPM9, pH 7; P. aeruginosa IPM-9; nutrient agar pH7, 32° C., 18 hours; read-out: MIC
Description: as §2

K. pneumoniae PCI 602 = test: In vitro antibacterial MIC; type: cell-based; conditions: Klebsiella pneumoniae, PCI602, pH 7; K. pneumoniae PCI 602; nutrient agar pH7, 32° C., 18 hours; read-out: MIC
Description: as §2

M. morganii I510 = test: In vitro antibacterial MIC; type: cell-based; conditions: Morganella morganii, pH 7; M. morganii I510; nutrient agar pH7, 32° C., 18 hours; read-out: MIC
Description: as §2

S. marcescens IPM-16 = test: In vitro antibacterial MIC; type: cell-based; conditions: Serratia marcescens, IPM16, 18 h, pH 7
Description: as §2

P. rettgeri IPM-14 = test: In vitro antibacterial MIC; type: cell-based; conditions: Providencia rettgeri, IPM14, pH 7; P. rettgeri IPM-14; nutrient agar pH7, 32° C., 18 hours; read-out: MIC
Description: as §2

Question: How did the MIC (C. neoformans IAM4514) turn out when `C[C@@H]1[C@H](O)[C@@H](C)/C=C/C=C/C=C/C=C/C=C/C=C/C=C/[C@H](O[C@@H]2O[C@H](C)[C@@H](O)[C@H](N)[C@@H]2O)C[C@@H]2O[C@](O)(C[C@@H](O)C[C@@H](O)[C@H](O)CC[C@@H](O)C[C@@H](O)CC(=O)O[C@H]1C)C[C@H](O)[C@H]2C(=O)O` [Amphotericin B, reference compound] was run?
Answer: 0.4 µg/mL (≈ 0.433 µM)

Question: What about the MIC [1] of the same molecule?
Answer: 0.2 µg/mL (≈ 0.216 µM)

Question: What about the MIC [2] of the same molecule?
Answer: 50 µg/mL (≈ 54.1 µM)

Question: Which IC50 [3] does the source give for `COC1=C(C(=O)O)C(C)C23OC24c2cc(OC(C)=O)c5c(c2NC3C#CC=CC#CC14)C(=O)c1c(OC(C)=O)ccc(OC(C)=O)c1C5=O` (stereo not drawn) [Dynemicin A acetate, reference compound] here?
Answer: 0.0007 µg/mL

Question: Which results are given for `NCC[C@H](O)C(=O)N[C@@H]1C[C@H](N)[C@@H](O[C@H]2O[C@H](CN)[C@@H](O)[C@H](O)[C@H]2O)[C@H](O)[C@H]1O[C@H]1O[C@H](CO)[C@@H](O)[C@H](N)[C@H]1O` [Amikacin, reference compound]?
Answer: MIC (P. aeruginosa KKA19): 3.1 µg/mL (≈ 5.29 µM); MIC (P. cepecia A21213): > 100 µg/mL; MIC (P. vulgaris IPM-13): 6.3 µg/mL (≈ 10.8 µM); MIC (X. maltophilia No. 661): > 100 µg/mL; MIC (E. coli 255): 6.3 µg/mL (≈ 10.8 µM); MIC (X. maltophilia GN12873): > 100 µg/mL; MIC (S. epidermidis 11-1230): 25 µg/mL (≈ 42.7 µM); MIC (P. aeruginosa A9843A): 3.1 µg/mL (≈ 5.29 µM); MIC (P. aeruginosa A20599): 1.6 µg/mL (≈ 2.73 µM); MIC (S. marcescens IPM-15): 12.5 µg/mL (≈ 21.3 µM); MIC (P. cepecia No. 651): > 100 µg/mL; MIC (S. aureus A15036 (MRSA)): 3.1 µg/mL (≈ 5.29 µM); MIC (P. aeruginosa IPM-8): 6.3 µg/mL (≈ 10.8 µM); MIC (E. faecalis A9808): 50 µg/mL (≈ 85.4 µM); MIC (E. coli Juhl A15119): 12.5 µg/mL (≈ 21.3 µM); MIC (S. aureus smith): 1.6 µg/mL (≈ 2.73 µM); MIC (E. faecium A24817): 100 µg/mL (≈ 171 µM); MIC (S. aureus IPM-24 (MRSA)): 100 µg/mL (≈ 171 µM); MIC (P. mirabilis IFO 3849): 25 µg/mL (≈ 42.7 µM); MIC (M. luteus PCI 1001): 3.1 µg/mL (≈ 5.29 µM); MIC (E. cloacae IPM-12): 25 µg/mL (≈ 42.7 µM); MIC (P. aeruginosa IPM-9): 1.6 µg/mL (≈ 2.73 µM); MIC (K. pneumoniae PCI 602): 1.6 µg/mL (≈ 2.73 µM); MIC (M. morganii I510): 25 µg/mL (≈ 42.7 µM); MIC (S. marcescens IPM-16): 100 µg/mL (≈ 171 µM); MIC (P. rettgeri IPM-14): 12.5 µg/mL (≈ 21.3 µM)
